US5700640A, “Inducers of gamma globin gene expression and screening assays therefor” (priority 1994, dated 1997)

Tests used:
[1] = system: gamma globin-regulated luciferase mRNA; assay: cells; type: cell-based, human; conditions: Homo sapiens, K562, 5 h, read-out: increase in luciferase mRNA
Procedure: Total RNA was prepared by the method of McDonald as described in Sambrook et al., (1989) Molecular Cloning: A Laboratory Manual, 2nd Edition, Cold Spring Harbor Laboratory Press. 10 μg total cellular RNA was electrophoresed through agarose gels containing 3.3% formaldehyde. The electrophoresed RNA was then transferred to nitrocellulose filters by standard methods. Each sample was hybridized to specific probes for gamma globin mRNA, mRNA encoding the erythroid specific transcription factor GATA-1 and 28S ribosomal RNA (which was used for standardization). The gamma globin and GATA-1 probes were cDNA probes, which were labeled with ^32 p by random priming reactions (Promega Biotech Inc.). The 28S ribosomal RNA probe was an oligonucleotide having the sequence 5' […] 3' (SEQ ID NO: 3), which was labeled by 5' end labeling using T4 polynucleotide kinase (New England Biolabs). Nucleotide probes were hybridized to the RNA nitrocellulose filters according to standard techniques. After hybridization, radioactive signals on the nitrocellulose filters were directly quantified using a BioRad GS-250 Molecular Imager. mRNA hybridization intensities were normalized to the amount of 28S ribosomal RNA present for each sample. The results are summarized below in Table 1:
To determine if BA exerts its inductive effects by acting directly on pre-existing proteins in the cells, the effect of the protein synthesis inhibitor cycloheximide (CHX) on BA-induced expression of RNA was analyzed. In these experiments, gamma3'PE cells were incubated with 150 μg/ml CHX for 2 hr prior to addition of BA (5 mM). Control cells were incubated with either CHX or BA alone or were mock incubated. Cells were harvested 5 hr later for preparation of total RNA. RNA samples were electrophoresed, transferred to nitrocellulose and hybridized to a ^32 P-labeled luciferase cDNA probe as described in Example 4. The radioactive signals on the filter were quantitated using a BioRad GS-250 Molecular Imager and mRNA levels were normalized to values obtained for mock treated samples. […]

[2] = system: gamma globin gene expression (gamma3'PE reporter) in K562 cells; assay: gamma globin promoter-luciferase reporter assay in stably transfected gamma3'PE K562 cells
Procedure: The gamma globin 5' promoter and 3' enhancer fragments, alone or in combination with each other or another fragment, were inserted into restriction endonuclease sites flanking the coding sequences of the luciferase gene in pGL2 using standard recombinant DNA techniques (pGL2 was obtained commercially from Promega Biotech). Constructs were prepared which contained: 1) the gamma globin promoter alone upstream of the luciferase gene (gamma); 2) the gamma globin promoter upstream of the luciferase gene and the gamma globin 3' enhancer downstream of the luciferase gene (gamma3'PE); 3) the gamma globin promoter upstream of the luciferase gene and the SV40 enhancer downstream of the luciferase gene (gammaSV40); 4) the beta globin promoter upstream of the luciferase gene and the gamma globin 3' enhancer downstream of the luciferase gene Coeta3'PE); and 5) hypersensitive sites 2 and 3 G-IS2 and HS3) of the 5' globin enhancer upstream of the gamma globin promoter upstream of the luciferase gene and the gamma globin 3' enhancer downstream of the luciferase gene (HS2/3gamma3'PE). These constructs are illustrated schematically in FIG. 2.
The gamma globin-luciferase reporter gene constructs described in Example 1 were introduced into a human erythroleukemia cell line K562 (ATCC No. CCL 243). To create stable transfectants, K562 cells (5×10^6) in log phase were suspended in 400 μl HEPES buffered saline and then combined with 33.5 μg salmon testes DNA (Sigma), 1.5 μg neo plasmid (pPMT) and 15 μg reporter gene plasmid supercoiled that had been co-precipitated and suspended in 400 μl HEPES buffered saline. The DNA-cell mixture was electroporated at settings of 0.25 KV and 960 μFD using a Gene Pulser (BioRad Inc.) electropotation apparatus.
The cells were allowed to recover 10 minutes at room temperature, then added to 10 ml complete RPMI cell culture medium. Cell debris was removed by centrifugation at 1000 rpm for 5 minutes. The live cells were suspended in 20 ml RPMI in 2×10 cm dishes and grown in non-selective media for 48 hours. Stably transfected cells were then selected by growing the cells in media containing 300 μg/ml G418 for about one month. During this time the cells were split 1:5 every 3 to 4 days. Once the lines were stable, they were carried in 100 μg/ml G418. The cell lines were designated according to the reporter gene construct that was introduced into the cell line. For example, a cell line carrying the gamma'3PE construct was designated gamma3'PE. Transient transfections were carried out similarly except that the neo plasmid was omitted from the electroporation solution and the cells were not subjected to G418 selection.
K562 host cells carrying gamma globin-reporter gene constructs were used to lo screen compounds for their ability to induce globin gene expression, as measured by increased reporter gene activity in the host cells upon treatment with the compound. The host cells described in Example 2 were grown to log phase cells and plated at a density of 2×10^5 /ml in RPMI media without G418. After 24 hours, compounds to be assayed for their ability to induce globin gene expression were dissolved in RPMI media at a concentration of 5 mM and added to the K562 stable transfectants. Mock-treated stably transfected K562 cells served as a negative control. The cells were incubated with the test compounds at 37° C. for various time periods (e.g., 24, 50, 74 and 122 hours).
After induction with the test compounds, the cells were harvested, lysed and assayed for reporter gene activity (i.e., luciferase activity) as follows. Cells were collected, washed once with PBS and lysed in 200 μl Cell Culture Lysis 1 X Reagent (Promega Luciferase Assay System) consisting of 25 mM Tris-Phosphate pH 7.8; 2 mM DTT; 2 mM 1,2-diaminocyclohexane-N,N,N,N-tetraacetic acid; 10% glycerol; 1% Triton X-100.

[3] = system: neoplastic and non-neoplastic cells; conditions: Newmark et al. 1994; cited from earlier work

In the case of `CCCC(=O)O` [BA, butyric acid], the fold induction at 5000 µM [1] is reported as ~6, the “induction of gamma-globin reporter gene expression over time course (FIG. 3)” value ([2]; 5 mM, 24-122 hr, normalized to viable cells) is reported as “initially a strong inducer of gamma-globin gene expression” and the “level of induction by the conclusion of the time course (FIG. 3)” value ([2]; 5 mM, normalized to viable cells) is reported as “dropped below the level of uninduced cells by the conclusion of the time course”. The fold induction at 5000 µM ([2]; Homo sapiens, K562, 72 h, read-out: fold induction of reporter gene activity (FIG. 6)) was ~2 and the induction of differentiation [3] was “induce differentiation of neoplastic and non-neoplastic cells”.
